The values below come from patent publication US20260216119A1, “NOVEL SOLUTIONS” (priority 2022, published 2026).

One data set concerns rats. The note with it: in 0.5% Cremophor in aqueous solution; cited from earlier work.
The procedure of data set [1]:
0.79 g Cremophor EL (Trade Mark) was weighed in an Erlenmeyer flask, and 60 mL aCSF (obtained from Tocris Pharma) was added. […] The solution was then placed in an ultrasonic bath maintained at 25-28° C. for 20 minutes. […] The solution was ultrasonicated for another 25 minutes.
The mixture was then filtered using a Millipore Millex-LG, PTFE, 0.20 μm filter (SLLG025SS).
500 μL Cremophor EL was pipetted into an Erlenmeyer flask containing 40 mL in-house prepared aCSF. […] An additional 10 minutes of ultrasonication was carried out to ensure complete dissolution.

A further data set concerns female rats. The note with it: cited from earlier work.
For data set [2] the following is noted: ambient conditions. Here is the method: A solution that remains intact to an extent acceptable for pharmaceutical use for the time required between preparing the solution and administering it to the patient (for example 2 hours, for example 1 hour) is considered herein to be “stable”.
Another data set has as its target MEK2 (Homo sapiens, UniProt P36507). The note with it: cited from earlier work.
A short description of data set [3]: Calculated concentrations based on ventricle and CSF volumes. The class given is in vivo. The note with it: dog; for Cmax: Beagle, icv or intrathecal, ventricle volume 2 ml; for Cmax CSF: CSF volume 20 mL.

Sequence of MEK2 (P36507 whole entry, species assumed): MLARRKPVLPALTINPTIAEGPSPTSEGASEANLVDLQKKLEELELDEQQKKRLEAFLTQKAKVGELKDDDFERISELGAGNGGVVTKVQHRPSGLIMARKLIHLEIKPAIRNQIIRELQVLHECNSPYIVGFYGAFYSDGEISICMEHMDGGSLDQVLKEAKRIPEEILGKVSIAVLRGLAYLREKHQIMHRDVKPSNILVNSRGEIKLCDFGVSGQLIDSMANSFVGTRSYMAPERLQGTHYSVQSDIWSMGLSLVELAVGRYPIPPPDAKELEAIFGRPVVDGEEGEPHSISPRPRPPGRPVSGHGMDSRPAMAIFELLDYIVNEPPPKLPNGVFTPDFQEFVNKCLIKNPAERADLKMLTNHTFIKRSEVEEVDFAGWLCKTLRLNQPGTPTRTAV

As for `N#CC(=C(/N)Sc1ccccc1N)/C(C#N)=C(\N)Sc1ccccc1N` [Example U0126, 1,4-Diamino-2,3-dicyano-1,4-bis(o-aminophenylmercapto) butadiene], the “maximum tolerated intracerebroventricular (ICV) concentration in vivo” value in the data set on rats was 10 µM. Also, the “measured content of U0126” value in data set [1] (Example 2, clear solution after 0.20 μm PTFE filtration, 0.5% v/v Cremophor EL in aCSF) came to 68 µM. Moreover, the “U0126 content of filtered samples” value in data set [1] (Example 3, 0.5% Cremophor EL in aCSF, pH 8.6, after 0.20 μm PTFE filtration) fell in the range of 85 to 99 µM. The “long-term neurologic outcome after stroke” value with female rats was “improves long-term neurologic outcome”. Besides, the “time solid form remains intact” value in data set [2] is “several decades”. Further, on MEK2, the “inhibitor of MEK2” value is “inhibitor”. Also, the peak concentration (Cmax) (commonly the peak of the concentration-time curve) was 5 µM in data set [3] (20 μM/0.5 mL), 25 µM in data set [3] (100 μM/0.5 mL) and 50 µM in data set [3] (200 μM/0.5 mL). The “Cmax CSF” value in data set [3] (20 μM/0.5 mL) was 0.5 µM; in data set [3] (100 μM/0.5 mL) it was 2.5 µM; in data set [3] (200 μM/0.5 mL), 5 µM.
